Measurements reported in patent publication US20090123389A1, “Methods for modulating Th17 cell development in the treatment and prevention of cellulite” (priority 2007, published 2009).

Assays:
[1] = test system: amino acid response (AAR) pathway; test: eIF2α phosphorylation and ATF4 protein in T cells (immunoblot); type: cell-based, mouse
Experimental: Whole cell lysates were prepared 4 hours-post TCR activation and immunoblotting was performed with the indicated antibodies. ATF4 protein is indicated by arrowhead. NS—non-specific band.
FIG. 12E is an illustration depicting immunoblot analysis of purified CD4^+ CD25^− T cells activated through the TCR for the indicated times without exogenous cytokines in the presence of either 10 nM MAZ1310 or 10 nM HF as indicated. Whole cells lysates were prepared during the timecourse and immunoblotting was performed.
Cultures were further supplemented with either 10 nM MAZ1310 or 10 nM HF as indicated. Whole cell lysates were generated 4 hours after activation and immunoblotting was performed. Microarray data were generated from triplicate samples and all other data are representative of at least 2 similar experiments.
Western blotting: Whole cell lysates were generated from T cells activated for the indicated times. For STAT3 and Smad2/3 western blots cells were harvested, washed in PBS and lysed in 50 mM Tris, pH 7.4, 0.1% SDS, 1% Triton-×100, 140 mM NaCl, 1 mM EDTA, 1 mM EGTA supplemented with protease inhibitors tablets (Roche—Germany), 1 mM NaF and 1 mM Na3VO4. For eIF2α and ATF4 western blots, cells were harvested as above and lysed in 50 mM Tris, pH 7.4, 2% SDS, 20% glycerol and 2 mM EDTA supplemented with protease and phosphatase inhibitors as above. All lysates were cleared via centrifugation and 15-30 μg of protein was resolved by SDS-PAGE. Protein was transferred to nitrocellulose membranes, blocked and blotted using specific antibodies. Antibodies used for western blot analysis were anti-phospho-Smad2, anti-STAT3 (pY705), anti-STAT3, anti-eIF2α^pS51, anti-eIF2α, anti-GCN2^pT898, anti-GCN2 (all from cell signaling technology, Danvers, Mass.). Anti-ATF4/CREB2 and anti-β-actin were purchased from Santa Cruz biotechnology (Santa Cruz, Calif.). HRP-conjugated secondary antibodies were all purchased from Sigma, with the exception of HRP-conjugated anti-armenian hamster antibody (Jackson Immunoresearch—West Grove, Pa.).

[2] = human, in vivo; cited from earlier work
TGFβ signaling = TGFβ signaling in T and B cells (Smad phosphorylation, lymphocyte responses to TGFβ); type: cell-based, mouse; details: HF 10 nM (2.5-40 nM for Smad); SB-431542 10 μM
Experimental: DMSO, 10 nM HF, 10 nM MAZ1310 or 10 μM SB-431542 was added as indicated at the time of activation and intracellular cytokine staining was performed on expanded T cells on day 5 as in FIG. 14B
FIG. 15B is an illustration depicting the analysis of CD8^+ T cells that were activated in the presence or absence of TGFβ and cultured with DMSO, 10 nM HF, 10 nM MAZ1310 or 10 μM SB-431542. Expanded cells were restimulated on day 5 and intracellular staining was performed as above.
FIG. 15C is an illustration depicting the analysis of CFSE-labeled B cells that were activated by LPS stimulation in the presence or absence of TGFβ plus DMSO, 10 nM HF, 10 nM MAZ1310 or 10 μM SB-431542. Intracellular IL-6 production in B cells re-stimulated with PMA plus ionomycin, or cell-surface IgA expression was determined 4 days after activation by FACS analyses.
T cells were then activated in the presence or absence of 3 ng/ml TGFβ. Whole cell extracts were prepared after 1 hour of stimulation and western blot analyses were performed using the indicated antibodies.
Western blotting: Whole cell lysates were generated from T cells activated for the indicated times. For STAT3 and Smad2/3 western blots cells were harvested, washed in PBS and lysed in 50 mM Tris, pH 7.4, 0.1% SDS, 1% Triton-×100, 140 mM NaCl, 1 mM EDTA, 1 mM EGTA supplemented with protease inhibitors tablets (Roche—Germany), 1 mM NaF and 1 mM Na3VO4. […]

Jurkat T cells = test: Apoptosis of Jurkat T cells (Annexin V / PI, flow cytometry); type: cell-based; details: 100 nM HF, cultured for 30 hours
Experimental: The non-specific cytoxicity of HF in both normal and transformed T-cells at high doses was evaluated. Anti-CD3/anti-CD28 activated primary T cells were harvested 6 days after activation and cultured in the presence of IL-2 with or without HF (100 nM). As a positive control, some T cells were cultured without IL-2 to induce apoptosis (FIG. 3A). Jurkat T cells, a transformed T cell leukemia line, were cultured in complete medium with or without HF (100 nM) as indicated (FIG. 3B). Both primary and Jurkat T cells were cultured for 30 hours and programmed cell death, i.e. apoptosis, was determined by Annexin V staining and propidium iodide (PI) uptake and cells were analyzed by flow cytometry. The percent of apoptotic T cells at each time point was plotted and was defined as Annexin V^+ PI^−. […] In further experiments, titrating amounts of HF were added to primary T cells and apoptosis was determine as above at the indicated time points. At 100 nM HF, but not 30 nM or lower, generalized T-cell apoptosis was observed (FIG. 3C).

With `O=C(CC1NCCCC1O)Cn1cnc2cc(Br)c(Cl)cc2c1=O` (racemic) [HF, 7-bromo-6-chloro-3-[3-(3-hydroxy-2-piperidinyl)-2-oxopropyl]-4(3H)-quinazolinone] the “time at which eIF2α phosphorylation reached maximum levels” value ([1]; 10 nM HF) was ≤ 2 h, the “time until which ATF4 protein continued to accumulate” value ([1]; 10 nM HF) was 4 h and the “eIF2α phosphorylation in resting naïve T cells and T cells in Th17, ThN, Th1, Th2 and iTreg conditions” value ([1]; 10 nM HF, 4 hours) was “induced eIF2α phosphorylation”. For the same compound, the “induction of ATF4 expression by T cell state” value ([1]; 10 nM HF, 4 hours) was “in all differentiated T cells but not in naïve T cells”, the “HF concentration at which eIF2α phosphorylation plateaued” value ([1]; 4 hours-post TCR activation) was 5 to 10 nM and the “HF concentration inducing detectable eIF2α phosphorylation” value ([1]; 4 hours-post TCR activation) was 2.5 nM. The “HF concentration with highest ATF4 expression levels” value ([1]; 4 hours-post TCR activation) was 5 to 10 nM, the “HF concentration with reduced ATF4 expression” value ([1]; 4 hours-post TCR activation) was 20 to 40 nM and the “HF in serum during topical treatment” value [2] was “undetectable in serum”. For the same compound, the “TGFβ-induced Smad phosphorylation and other lymphocyte responses to TGFβ” value (TGFβ signaling) was “inhibited neither” and the “apoptosis of Jurkat T cells” value (Jurkat T cells) was “significant apoptosis”.
